Test results reported in patent US11999728B2, “Estrogen receptor modulators” (Recurium IP Holdings, LLC, priority 2020, dated 2024).

Tested on: MCF7
Test: Breast Cancer Cell Proliferation Assay (MCF-7), Cell Titer-Glo
Type: cell-based
Details: Homo sapiens, MCF7 cells, 5 days of compound exposure
Description: Breast Cancer Cell Proliferation Assay (MCF-7)
MCF7 was expanded and maintained in the medium (Phenol red free DMEM/F12 (Hyclone SH30272.01) NEAA (Gibco11140-050) Na-pyruvate (Gibco 11360-070) and Re-stripped Charcoal stripped FBS (Gemini 100-119)). The cells were adjusted to a concentration of 3,000 cells per mL in the above media, and the cells were incubated (37° C., 5% CO2). The following day a 10-point, serial dilution of compounds was added to the cells at a final concentration ranging from 10-0.000005 μM for test compounds (17β-estradiol was used as a control). Additional cells were plated in 30 wells to serve as the day 1 (pretreatment) comparison. After 5 days of compound exposure, Cell Titer-Glo reagent was added to the cells and the relative luminescence units (RLUs) of each well was determined. Cell Titer-Glo was also added to 32 μL of medium without cells to obtain a background value. The plates were allowed to incubate at room temperature for 10 minutes to stabilize luminescent signal and the luminescence signal was recorded with EnSpire. The relative increase in cell number of each sample is determined as follows: (RLU sample-RLU background/RLU estrogen only treated cells-RLU background)×100=% inhibition.

Row | Compound | IC50 (MCF7, 120 h) | IC50 (120 h)
1 | C[C@@H]1Cc2c([nH]c3ccccc23)[C@@H](c2ccc(O[C@@H]3CCN(CCCF)C3)cc2)N1C12CC(C1)C2 (single isomer, unassigned) [Compound 7] | 25 to 250 nM | –
2 | C[C@@H]1Cc2c([nH]c3ccccc23)[C@@H](c2c(F)cc(OC3CN(CCCF)C3)cc2F)N1C12CC(C1)C2 [Compound 23, (1R,3R)-2-(bicyclo[1.1.1]pentan-1-yl)-1-(2,6-difluoro-4-((1-(3-fluoropropyl)azetidin-3-yl)oxy)phenyl)-3-methyl-2,3,4,9-tetrahydro-1H-pyrido[3,4-b]indole] | ≤ 25 nM | –
3 | C[C@@H]1Cc2c([nH]c3ccccc23)[C@@H](c2ccc(O[C@H]3CCN(CCCF)C3)cn2)N1C12CC(C1)C2 (single isomer, unassigned) [Compound 12] | 25 to 250 nM | –
4 | C[C@@H]1Cc2c([nH]c3ccccc23)[C@@H](c2c(F)cc(O[C@@H]3CCN(CCCF)C3)cc2F)N1C12CC(C(N)=O)(C1)C2 (single isomer, unassigned) [Compound 34] | 25 to 250 nM | –
5 | C[C@@H]1Cc2c([nH]c3ccccc23)[C@@H](c2ccc(NC3CN(CCC#N)C3)cn2)N1C12CC(C1)C2 [Compound 4, 3-(3-((6-((1S,3R)-2-(bicyclo[1.1.1]pentan-1-yl)-3-methyl-2,3,4,9-tetrahydro-1H-pyrido[3,4-b]indol-1-yl)pyridin-3-yl)amino)azetidin-1-yl)propanenitrile] | – | 25 to 250 nM
6 | C[C@@H]1Cc2c([nH]c3ccccc23)[C@@H](c2ccc(OC3CN(CCCF)C3)cc2)N1C12CC(C1)C2 [Compound 38, (1R,3R)-2-(bicyclo[1.1.1]pentan-1-yl)-1-(4-((1-(3-fluoropropyl)azetidin-3-yl)oxy)phenyl)-3-methyl-2,3,4,9-tetrahydro-1H-pyrido[3,4-b]indole] | ≤ 25 nM | –
7 | C[C@@H]1Cc2c([nH]c3ccccc23)[C@@H](c2c(F)cc(NC3CN(CCCF)C3)cc2F)N1C12CC(CO)(C1)C2 (single isomer, unassigned) [Compound 18] | ≤ 25 nM | –
8 | C[C@@H]1Cc2c([nH]c3ccccc23)[C@@H](c2c(F)cc(NCCN3CCCC3)cc2F)N1C12CC(C1)C2 [Compound 22, 4-((1R,3R)-2-(bicyclo[1.1.1]pentan-1-yl)-3-methyl-2,3,4,9-tetrahydro-1H-pyrido[3,4-b]indol-1-yl)-3,5-difluoro-N-(2-(pyrrolidin-1-yl)ethyl)aniline] | 25 to 250 nM | –
9 | C[C@H]1Cc2c([nH]c3ccccc23)[C@H](c2c(F)cc(O[C@@H]3CCN(CCCF)C3)cc2F)N1C12CC(C(N)=O)(C1)C2 (single isomer, unassigned) [Compound 33] | ≥ 250 nM | –
10 | C[C@@H]1Cc2c([nH]c3ccccc23)[C@@H](c2ccc(O[C@@H]3CCN(CCCF)C3)cn2)N1C12CC(C1)C2 (single isomer, unassigned) [Compound 11] | ≥ 250 nM | –
11 | C[C@@H]1Cc2c([nH]c3ccccc23)[C@@H](c2ccc(NCCN3CCC(F)C3)nc2)N1C12CC(C1)C2 (stereo partly drawn) [Compound 28, 5-((1R,3R)-2-(bicyclo[1.1.1]pentan-1-yl)-3-methyl-2,3,4,9-tetrahydro-1H-pyrido[3,4-b]indol-1-yl)-N-(2-(3-fluoropyrrolidin-1-yl)ethyl)pyridin-2-amine] | ≥ 250 nM | –
12 | C[C@@H]1Cc2c([nH]c3ccccc23)[C@@H](c2ccc(OCCN3CC(CF)C3)cc2F)N1C12CC(C1)C2 [Compound 25, (1R,3R)-2-(bicyclo[1.1.1]pentan-1-yl)-1-(2-fluoro-4-(2-(3-(fluoromethyl)azetidin-1-yl)ethoxy)phenyl)-3-methyl-2,3,4,9-tetrahydro-1H-pyrido[3,4-b]indole] | ≤ 25 nM | –
13 | C[C@@H]1Cc2c([nH]c3ccccc23)[C@@H](c2ccc(O[C@@H]3CCN(CCCF)C3)nc2)N1C12CC(C1)C2 (single isomer, unassigned) [Compound 9] | 25 to 250 nM | –
14 | C[C@@H]1Cc2c([nH]c3ccccc23)[C@@H](c2ncc(OC3CN(CCCF)C3)cc2F)N1C12CC(C1)C2 [Compound 14, (1S,3R)-2-(bicyclo[1.1.1]pentan-1-yl)-1-(3-fluoro-5-((1-(3-fluoropropyl)azetidin-3-yl)oxy)pyridin-2-yl)-3-methyl-2,3,4,9-tetrahydro-1H-pyrido[3,4-b]indole] | ≤ 25 nM | –
15 | C[C@H]1Cc2c([nH]c3ccccc23)[C@H](c2c(F)cc(NC3CN(CCCF)C3)cc2F)N1C12CC(CO)(C1)C2 (single isomer, unassigned) [Compound 17] | ≥ 250 nM | –

The next lines start with results.

Row | IC50 (MCF7, 120 h) | Compound | IC50 (120 h)
16 | ≤ 25 nM | C#CCN1CC(Nc2ccc([C@@H]3c4[nH]c5ccccc5c4C[C@@H](C)N3C34CC(C3)C4)nc2)C1 [Compound 48, 6-((1S,3R)-2-(bicyclo[1.1.1]pentan-1-yl)-3-methyl-2,3,4,9-tetrahydro-1H-pyrido[3,4-b]indol-1-yl)-N-(1-(prop-2-yn-1-yl)azetidin-3-yl)pyridin-3-amine] | –
17 | 25 to 250 nM | CCCN1C[C@@H](F)[C@@H](Nc2ccc([C@@H]3c4[nH]c5ccccc5c4C[C@@H](C)N3C34CC(C3)C4)cc2)C1 (single isomer, unassigned) [Compound 86] | –
18 | ≥ 250 nM | C[C@@H]1Cc2c([nH]c3ccccc23)[C@@H](c2cnc(NC3CN(CCCF)C3)c(F)c2)N1C12CC(C1)C2 [Compound 41, 5-((1R,3R)-2-(bicyclo[1.1.1]pentan-1-yl)-3-methyl-2,3,4,9-tetrahydro-1H-pyrido[3,4-b]indol-1-yl)-3-fluoro-N-(1-(3-fluoropropyl)azetidin-3-yl)pyridin-2-amine] | –
19 | ≤ 25 nM | C[C@@H]1Cc2c([nH]c3ccccc23)[C@@H](c2ccc(OC3CN(CCCF)C3)cc2)N1C12CC(CO)(C1)C2 (single isomer, unassigned) [Compound 50] | –
20 | ≤ 25 nM | CCCN1CC(Oc2ccc([C@@H]3c4[nH]c5ccccc5c4C[C@@H](C)N3C34CC(CO)(C3)C4)cc2)C1 (single isomer, unassigned) [Compound 52] | –
21 | 25 to 250 nM | C[C@@H]1Cc2c([nH]c3ccccc23)[C@@H](c2ccc(NC3CN(CC(C)(F)F)C3)cc2)N1C12CC(C1)C2 [Compound 88, N-(4-((1R,3R)-2-(bicyclo[1.1.1]pentan-1-yl)-3-methyl-2,3,4,9-tetrahydro-1H-pyrido[3,4-b]indol-1-yl)phenyl)-1-(2,2-difluoropropyl)azetidin-3-amine] | –
22 | ≥ 250 nM | C[C@@H]1Cc2c([nH]c3ccccc23)[C@@H](c2ccc(N3CC(NCCCF)C3)cn2)N1C12CC(C1)C2 [Compound 49, 1-(6-((1S,3R)-2-(bicyclo[1.1.1]pentan-1-yl)-3-methyl-2,3,4,9-tetrahydro-1H-pyrido[3,4-b]indol-1-yl)pyridin-3-yl)-N-(3-fluoropropyl)azetidin-3-amine] | –
23 | ≥ 250 nM | C[C@@H]1Cc2c([nH]c3ccccc23)[C@@H](c2ncc(NC3CN(CCCF)C3)cn2)N1C12CC(C1)C2 [Compound 60, 2-((1S,3R)-2-(bicyclo[1.1.1]pentan-1-yl)-3-methyl-2,3,4,9-tetrahydro-1H-pyrido[3,4-b]indol-1-yl)-N-(1-(3-fluoropropyl)azetidin-3-yl)pyrimidin-5-amine] | –
24 | ≤ 25 nM | C[C@H](F)CN1CC(Nc2ccc([C@@H]3c4[nH]c5ccccc5c4C[C@@H](C)N3C34CC(C3)C4)cc2)C1 (single isomer, unassigned) [Compound 83] | –
25 | ≤ 25 nM | CCCN1C[C@H](F)[C@H](Nc2ccc([C@@H]3c4[nH]c5ccccc5c4C[C@@H](C)N3C34CC(C3)C4)cc2)C1 (single isomer, unassigned) [Compound 85] | –
26 | ≥ 250 nM | COc1cc(NC2CN(CCCF)C2)cnc1[C@@H]1c2[nH]c3ccccc3c2C[C@@H](C)N1C12CC(C1)C2 [Compound 94, 6-((1S,3R)-2-(bicyclo[1.1.1]pentan-1-yl)-3-methyl-2,3,4,9-tetrahydro-1H-pyrido[3,4-b]indol-1-yl)-N-(1-(3-fluoropropyl)azetidin-3-yl)-5-methoxypyridin-3-amine] | –
27 | ≤ 25 nM | COc1cc(NC2CN(CCCF)C2)cc(F)c1[C@@H]1c2[nH]c3ccccc3c2C[C@@H](C)N1C12CC(C1)C2 [Compound 92, N-(4-((1R,3R)-2-(bicyclo[1.1.1]pentan-1-yl)-3-methyl-2,3,4,9-tetrahydro-1H-pyrido[3,4-b]indol-1-yl)-3-fluoro-5-methoxyphenyl)-1-(3-fluoropropyl)azetidin-3-amine] | –
28 | ≤ 25 nM | C[C@@H]1Cc2c([nH]c3ccccc23)[C@@H](c2ccc(N[C@@H]3CN(CCCF)C[C@@H]3F)cc2)N1C12CC(C1)C2 (single isomer, unassigned) [Compound 73] | –
29 | ≤ 25 nM | C[C@H]1Cc2c([nH]c3ccccc23)[C@H](c2c(F)cc(N[C@H]3CCN(CCCF)C3)cc2F)N1C12CC(CO)(C1)C2 (single isomer, unassigned) [Compound 71] | –
30 | ≤ 25 nM | C#CCN1CC(Nc2ccc([C@@H]3c4[nH]c5ccccc5c4C[C@@H](C)N3C34CC(C3)C4)cc2)C1 [Compound 65, N-(4-((1R,3R)-2-(bicyclo[1.1.1]pentan-1-yl)-3-methyl-2,3,4,9-tetrahydro-1H-pyrido[3,4-b]indol-1-yl)phenyl)-1-(prop-2-yn-1-yl)azetidin-3-amine] | –
31 | ≥ 250 nM | C[C@H]1Cc2c([nH]c3ccccc23)[C@H](c2c(F)cc(NC3CN(CCCF)C3)cc2F)N1C12CC(C(N)=O)(C1)C2 (single isomer, unassigned) [Compound 77] | –
